Results as given in US20240091210A1, “USE OF 5-[[4-[2-[5-ACETYLPYRIDIN-2-YL]ETHOXY]BENZYL]-1,3-THIAZOLIDINE-2,4-DIONE AND ITS SALTS” (Minoryx Therapeutics S.L., priority 2018, published 2024).

Legend:
[1] = Plasma pharmacokinetics in mice after single oral 50 mg/kg M-III; assay type: in vivo; conditions: male C57BL/6 mice
Procedure: (§1) To the plasma pharmacokinetics of 5-[[4-[2-[5-acetylpyridin-2-yl]ethoxy]phenyl]methyl]-1,3-thiazolidine-2,4-dione (M-III) and 5-[[4-[2-[5-(1-hydroxyethyl)pyridin-2-yl]ethoxy]phenyl]methyl]-1,3-thiazolidine-2,4-dione (M-IV) were determined in male C57BL/6 mice following a single oral (50 mg/kg) dose administration of M-III.
Nine animals were administered orally with suspension formulation of M-III in 0.1% Tween 80 and 99.9% NaCMC in water (0.5% w/v) at 50 mg/kg dose. The dosing volume administered was 10 mL/kg. The blood samples were collected from set of three mice at each time point in labeled micro centrifuge tube containing K2EDTA solution as anticoagulant at Pre-dose, 0.25, 0.5, 1, 2, 4, 8, 12 and 24 hr. Plasma samples were separated by centrifugation of whole blood and stored below −70±10° C. until bioanalysis. All samples were processed for analysis by protein precipitation using acetonitrile and analyzed with fit-for-purpose LC-MS/MS method (LLOQ=2.46 ng/mL for M-III and 2.49 ng/mL for M-IV). Pharmacokinetic parameters were calculated using the non-compartmental analysis tool of Phoenix WinNonlin® (Version 6.3).

[2] = Plasma pharmacokinetics in mice after single oral 4.5 mg/kg M-III or MIN-102; assay type: in vivo, male C57BL/6 mice
Procedure: as §1, with “The” for “To the”, “(4.5” for “(50”, “dose” for “dose administration”, “either M-III or MIN-102 (5-[[4-[2-[5-(1-hydroxyethyl)pyridin-2-yl]ethoxy]phenyl]methyl]-1,3-thiazolidine-2,4-dione hydrochloride).” for “M-III.”
Animals were administered orally with a suspension formulation of either M-III or MIN-102 in 0.1% Tween 80 and 99.9% NaCMC in water (0.5% w/v) at 4.5 mg/kg dose. The blood samples were collected from a set of three mice at each time point in labeled micro centrifuge tubes containing K2EDTA solution as anticoagulant at Pre-dose, 0.25, 0.5, 1, 2, 4, 8, 12 and 24 hr. Plasma samples were separated by centrifugation of whole blood and stored below −70±10° C. until bioanalysis. All samples were processed for analysis by protein precipitation using acetonitrile and analyzed with fit-for-purpose LC-MS/MS method (LLOQ=2.46 ng/mL for M-III and 2.49 ng/mL for M-IV). Pharmacokinetic parameters were calculated using the non-compartmental analysis tool of Phoenix WinNonlin® (Version 6.3).

[3] = Plasma pharmacokinetics in rats after single oral 10 mg/kg M-III or MIN-102; assay type: in vivo, male Sprague Dawley rats
Procedure: (§2) The plasma pharmacokinetics of 5-[[4-[2-[5-acetylpyridin-2-yl]ethoxy]phenyl]methyl]-1,3-thiazolidine-2,4-dione (M-III; M3) and 5-[[4-[2-[5-(1-hydroxyethyl)pyridin-2-yl]ethoxy]phenyl]methyl]-1,3-thiazolidine-2,4-dione (M-IV; M4) were determined in male Sprague Dawley following a single oral (10 mg/kg) dose administration of either M-III or MIN-102.
Six animals were dosed orally with a suspension formulation of either M-III or MIN-102 in 0.1% Tween 80 and 99.9% CMC (0.5% w/v solution in RO water) at 10 mg/kg.
The dosing volume administered was 10 mL/kg. Blood samples (approximately 60 μL) were collected from retro-orbital plexus of three rats at 0.08, 0.25, 0.5, 1, 2, 4, 8, 12 and 24 hr (IV) and at predose, 0.25, 0.5, 1, 2, 4, 8, 12 and 24 hr. Samples were collected into labeled micro-tubes, containing K2EDTA solution (20% K2EDTA solution) as an anticoagulant. Plasma was immediately harvested from the blood by centrifugation at 4000 rpm for 10 min at 4±2° C. and stored below −70° C. until bioanalysis.
Concentrations of M-III and M-IV in rat plasma samples were determined by fit-for-purpose LC-MS/MS method. Non-Compartmental-Analysis module in Phoenix WinNonlin® (Version 6.3) was used to assess the pharmacokinetic parameters. Peak plasma concentrations (Cax) and time for the peak plasma concentrations (Tmax) were the observed values. The areas under the concentration time curve (AUClast and AUCinf) were calculated by linear trapezoidal rule.

[4] = Plasma pharmacokinetics in dogs after single oral 3 mg/kg M3 or MIN-102; assay type: in vivo, male Beagle dogs
Procedure: as §2, with “male Beagle dogs” for “male Sprague Dawley”, “oral (3” for “oral (10”, “either M3” for “either M-III”
Six animals were dosed orally with a suspension formulation of either M-III or MIN-102 in 0.1% Tween 80 and 99.9% CMC (aqueous carboxymethylcellulose 0.5% w/v solution in RO water) at 3 mg/kg. Blood samples (0.5 ml) were collected from the saphenous or cephalic or jugular veins of dogs at predose, 0.5, 1, 2, 4, 6 and 24 hr. Samples were collected into labeled micro-tubes, containing K2EDTA solution (20% K2EDTA solution) as an anticoagulant. Plasma was immediately harvested from the blood by centrifugation at 4000 rpm for 10 min and stored below −70° C. until bioanalysis.
Concentrations of M3 and M-IV in dog plasma samples were determined by fit-for-purpose LC-MS/MS method. Non-Compartmental-Analysis module in Phoenix WinNonlin® (Version 6.3) was used to assess the pharmacokinetic parameters. Peak plasma concentrations (Cmax) and time for the peak plasma concentrations (Tmax) were the […] observed values. The areas under the concentration time curve (AUClast and AUCinf) were calculated by linear trapezoidal rule.

[5] = as described in WO 2015/150476 A1; cited from earlier work
[6] = target: mitochondrial pyruvate carrier (MPC) (Homo sapiens (Human), UniProt O95563+Q9Y5U8); test: BRET assay of MPC inhibitory activity in HEK cells; assay type: cell-based; conditions: HEK cells expressing MPC2-Rluc8 and MPC1-Venus; read-out: IC50 (MPC inhibition, BRET)
Chain of mitochondrial pyruvate carrier (MPC) (Q9Y5U8 whole entry, the tested form may be a part): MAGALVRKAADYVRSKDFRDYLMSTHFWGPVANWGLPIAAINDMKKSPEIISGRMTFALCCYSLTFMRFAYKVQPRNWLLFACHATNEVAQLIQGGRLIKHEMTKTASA
Chain of mitochondrial pyruvate carrier (MPC) (O95563 whole entry, the tested form may be a part): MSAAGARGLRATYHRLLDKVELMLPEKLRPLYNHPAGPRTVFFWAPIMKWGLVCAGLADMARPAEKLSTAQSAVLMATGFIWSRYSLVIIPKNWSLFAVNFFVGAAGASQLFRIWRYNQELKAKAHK
Procedure: The MPC is a heterodimer composed of two subunits, MPC1 and MPC2. MPC1 and MPC2 interact to form an active carrier. In the assay, MPC2 was fused to Rluc8 (Donor) and MPC1 to Venus (Acceptor). These chimeric proteins were stably expressed in HEK cells. BRET activity was measured following addition of coelenterazine in the culture medium. Coelenterazine enters into cells and in contact with luciferase Rluc8 emits light, which activates the emission of fluorescence by the Acceptor, provided the distance between the Donor and Acceptor is <[…]. If the distance between Donor and Acceptor is >[…], no BRET activity is measured. The level of BRET activity reflects a change in the conformation of the MPC: it is high when the carrier is in a closed conformation, low when the carrier is at rest and intermediary when it transports pyruvate. In this case, the BRET activity is the mean value between the BRET value when the carrier is at rest (Maximal distance between Donor and Acceptor) and the BRET value when it is closed (Shortest distance between Donor and Acceptor)
A wide range of concentrations of each of the tested compounds was used from 1 nM to 100 μM.

share of total exposure (AUC) [1] | share of total exposure (AUC) ([2]; after single oral 4.5 mg/kg M-III, male mice) | share of total exposure (AUC) ([2]; after single oral 4.5 mg/kg MIN-102, male mice) | share of total exposure (AUC) ([3]; after single oral 10 mg/kg M-III, male rats) | share of total exposure (AUC) ([3]; after single oral 10 mg/kg MIN-102, male rats) | share of total exposure (AUC) ([4]; after single oral 3 mg/kg M3, male dogs) | share of total exposure (AUC) ([4]; after single oral 3 mg/kg MIN-102, male dogs) | Structure (SMILES) | blood-brain-barrier penetration [5] | IC50 [6]
about 75% | ~75% | about 62% | ~48% | about 58% | ~84% | about 92% | CC(O)c1ccc(CCOc2ccc(CC3SC(=O)NC3=O)cc2)nc1 (stereo not shown) [M-IV, 5-[[4-[2-[5-(1-hydroxyethyl)pyridin-2-yl]ethoxy]phenyl]methyl]-1,3-thiazolidine-2,4-dione] | penetrates the BBB | 
 |  |  |  |  |  |  | CCc1ccc(CCOc2ccc(CC3SC(=O)NC3=O)cc2)nc1 (stereo not shown) [Pioglitazone] |  | > 100000 nM
 |  |  |  |  |  |  | CN(CCOc1ccc(C[C@@H]2SC(=O)NC2=O)cc1)c1ccccn1 [Rosiglitazone] |  | 2000 nM
